Measurements published in ChEMBL document CHEMBL1201862, “PubChem BioAssay data set” (2004).
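Values below derive from 48-hour exposures of cells grown in 96-well plates, with endpoints linearly interpolated between the two concentrations bracketing the appropriate inhibition level. At the GI50, growth is halved.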 Active and inactive are the calls of the source. Cut-off read from the data, not from the text of the source: active = GI50 up to about 1.1 µM and inactive = higher.

Experiments:
Test in all cases: NCI-60 cell line screen, 48 h
A498 = test system: A498
HOP-92 = test system: HOP-92
K562 = test system: K562
KM12 = test system: KM12
M14 = test system: M14
MCF7 = test system: MCF7
Malme-3M = test system: Malme-3M
NCI-H460 = test system: NCI-H460
NCI-H522 = test system: NCI-H522
OVCAR-3 = test system: OVCAR-3
PC-3 = test system: PC-3
RXF 393 = test system: RXF 393
SF-295 = test system: SF-295
SF-539 = test system: SF-539
SW-620 = test system: SW-620
T47D = test system: T47D
TK-10 = test system: TK-10
UO-31 = test system: UO-31
SNB-75 = test system: SNB-75
BT-549 = test system: BT-549

| Structure (SMILES) | GI50 (A498) | GI50 (HOP-92) | GI50 (K562) | GI50 (KM12) | GI50 (M14) | GI50 (MCF7) | GI50 (Malme-3M) | GI50 (NCI-H460) | GI50 (NCI-H522) | GI50 (OVCAR-3) | GI50 (PC-3) | GI50 (RXF 393) | GI50 (SF-295) | GI50 (SF-539) | GI50 (SW-620) | GI50 (T47D) | GI50 (TK-10) | GI50 (UO-31) | GI50 (SNB-75) | GI50 (BT-549) |
| --- | --- | --- | --- | --- | --- | --- | --- | --- | --- | --- | --- | --- | --- | --- | --- | --- | --- | --- | --- | --- |
| O=c1[nH]nc(-c2ccccc2)n1/N=C/c1c[nH]c2ccccc12 | > 100 µM (inactive) | > 100 µM (inactive) | > 100 µM (inactive) | 5 µM (inactive) | > 100 µM (inactive) | > 100 µM (inactive) | > 100 µM (inactive) | > 100 µM (inactive) | > 100 µM (inactive) | > 100 µM (inactive) | > 100 µM (inactive) | 98.4 µM (inactive) | > 100 µM (inactive) | > 100 µM (inactive) | > 100 µM (inactive) | > 100 µM (inactive) | 17.6 µM (inactive) | > 100 µM (inactive) | – | – |
| C[C@]12CC[C@H](OCCC#N)CC1=CC[C@@H]1C2CC[C@]2(C)/C(=N/OCCC#N)CCC12 (stereo partly specified) | > 100 µM (inactive) | 14.3 µM (inactive) | > 22.4 µM (inactive) | > 100 µM (inactive) | 38.3 µM (inactive) | – | 30.1 µM (inactive) | 97.7 µM (inactive) | 20.9 µM (inactive) | > 21 µM (inactive) | – | 25.4 µM (inactive) | 17.2 µM (inactive) | 55 µM (inactive) | > 100 µM (inactive) | – | > 44.4 µM (inactive) | > 100 µM (inactive) | 28.1 µM (inactive) | – |
| CC1CN=C(N(Cc2ccccc2)C(=O)Nc2ccc(Cl)c(Cl)c2)S1 (stereo unspecified) | 35.7 µM (inactive) | 21.6 µM (inactive) | 21.1 µM (inactive) | 40.7 µM (inactive) | 18.3 µM (inactive) | 52.1 µM (inactive) | 99.3 µM (inactive) | 35.7 µM (inactive) | – | 50.9 µM (inactive) | 31.4 µM (inactive) | – | > 10 µM (inactive) | 33.3 µM (inactive) | 43.5 µM (inactive) | 16.9 µM (inactive) | 32.4 µM (inactive) | 25.8 µM (inactive) | 35.6 µM (inactive) | – |
| OC(C/C(=N\N1CCCCC1)c1cccs1)(C(F)(F)F)C(F)(F)F | > 10 µM (inactive) | > 10 µM (inactive) | > 10 µM (inactive) | > 10 µM (inactive) | > 10 µM (inactive) | > 10 µM (inactive) | > 10 µM (inactive) | > 10 µM (inactive) | > 10 µM (inactive) | > 10 µM (inactive) | > 10 µM (inactive) | > 10 µM (inactive) | > 10 µM (inactive) | > 10 µM (inactive) | > 10 µM (inactive) | > 10 µM (inactive) | > 10 µM (inactive) | > 10 µM (inactive) | > 10 µM (inactive) | – |
| CN(C)CCNC(=O)c1cccc2cc3ccc4ccccc4c3nc12 | < 0.01 µM (active) | 0.143 µM (active) | 0.0653 µM (active) | 0.148 µM (active) | 0.2 µM (active) | – | 0.268 µM (active) | 0.0149 µM (active) | 0.122 µM (active) | 0.215 µM (active) | – | 0.111 µM (active) | 0.0867 µM (active) | 0.0811 µM (active) | 0.0306 µM (active) | – | 0.207 µM (active) | 0.0481 µM (active) | 0.131 µM (active) | – |
| CO[C@@](c1ccccc1)(c1nc(C#N)c(N)o1)C(F)(F)F | > 100 µM (inactive) | 44.7 µM (inactive) | 33.7 µM (inactive) | > 100 µM (inactive) | > 100 µM (inactive) | > 100 µM (inactive) | > 100 µM (inactive) | – | 26.6 µM (inactive) | > 100 µM (inactive) | > 100 µM (inactive) | > 100 µM (inactive) | > 100 µM (inactive) | > 100 µM (inactive) | 86.5 µM (inactive) | > 100 µM (inactive) | > 100 µM (inactive) | 68.1 µM (inactive) | 20.5 µM (inactive) | – |
| COc1ccc(OC)c(/C=C/c2cnnc3ccccc23)c1 | – | 3.89 µM (inactive) | 2.33 µM (inactive) | 2.8 µM (inactive) | 5.21 µM (inactive) | 1.85 µM (inactive) | – | 4.11 µM (inactive) | 3.66 µM (inactive) | 3.94 µM (inactive) | 7.69 µM (inactive) | 2.25 µM (inactive) | 5.4 µM (inactive) | 2.39 µM (inactive) | 3.06 µM (inactive) | > 10 µM (inactive) | > 10 µM (inactive) | 5.08 µM (inactive) | 4.19 µM (inactive) | – |
| COc1cc2c(c3c1c(=O)c1ccccc1n3C)C=C([N+](=O)[O-])C(C)(C)O2 | 0.0253 µM (active) | 0.431 µM (active) | 0.441 µM (active) | > 100 µM (inactive) | 0.157 µM (active) | 0.358 µM (active) | – | < 0.0201 µM (active) | 0.365 µM (active) | > 100 µM (inactive) | > 100 µM (inactive) | 0.132 µM (active) | 0.647 µM (active) | 1.36 µM (inactive) | – | > 100 µM (inactive) | > 65.2 µM (inactive) | 0.421 µM (active) | 13.2 µM (inactive) | – |
| COc1cccc(N2C(=O)CSC2c2cc(OC)c(OC)c(OC)c2)c1 (stereo unspecified) | > 100 µM (inactive) | > 100 µM (inactive) | 25.9 µM (inactive) | 12.2 µM (inactive) | 27.7 µM (inactive) | 19.4 µM (inactive) | – | 27.8 µM (inactive) | 26.4 µM (inactive) | 20.7 µM (inactive) | 55.1 µM (inactive) | – | 21.8 µM (inactive) | 24.5 µM (inactive) | 39.7 µM (inactive) | – | > 100 µM (inactive) | 36.8 µM (inactive) | – | 22.1 µM (inactive) |
| CC1C/C(=C\c2ccc(OC(=O)C(C)(C)C)cc2)C(=O)/C(=C/c2ccc(OC(=O)C(C)(C)C)cc2)C1 (stereo unspecified) | 33.6 µM (inactive) | > 100 µM (inactive) | 84.7 µM (inactive) | 26.2 µM (inactive) | > 100 µM (inactive) | 45.5 µM (inactive) | > 100 µM (inactive) | > 100 µM (inactive) | 4.29 µM (inactive) | 68.4 µM (inactive) | 72.4 µM (inactive) | 19.8 µM (inactive) | 81.5 µM (inactive) | 39.5 µM (inactive) | > 100 µM (inactive) | 59.3 µM (inactive) | > 100 µM (inactive) | – | – | – |
| CCn1c(=O)c2nc(SC)sc2n(-c2ccc(C)cc2)c1=O | – | > 100 µM (inactive) | > 100 µM (inactive) | 88.9 µM (inactive) | 6.68 µM (inactive) | > 100 µM (inactive) | > 100 µM (inactive) | > 100 µM (inactive) | > 100 µM (inactive) | > 100 µM (inactive) | > 100 µM (inactive) | > 100 µM (inactive) | > 100 µM (inactive) | > 100 µM (inactive) | > 100 µM (inactive) | > 100 µM (inactive) | > 100 µM (inactive) | 32.1 µM (inactive) | 29.4 µM (inactive) | – |
| COc1ccc(C(c2ccc(C(C)C)cc(OC)c2=O)c2ccc(C(C)C)cc(OC)c2=O)cc1 | 17.7 µM (inactive) | 13.6 µM (inactive) | 10.7 µM (inactive) | 13.5 µM (inactive) | 14.9 µM (inactive) | – | 16.5 µM (inactive) | 14.6 µM (inactive) | 14.4 µM (inactive) | 13.2 µM (inactive) | – | 4.15 µM (inactive) | 16.2 µM (inactive) | 17 µM (inactive) | 15.5 µM (inactive) | – | 19.6 µM (inactive) | 14.3 µM (inactive) | 19.6 µM (inactive) | – |
| O=C1/C(=C/c2ccc(Cl)cc2)CCCc2ccccc21 | – | 21.5 µM (inactive) | 3.24 µM (inactive) | 15.2 µM (inactive) | 15.6 µM (inactive) | 17.2 µM (inactive) | 13.6 µM (inactive) | 17.7 µM (inactive) | 11.7 µM (inactive) | 18.9 µM (inactive) | 19.6 µM (inactive) | – | 16.9 µM (inactive) | 17.9 µM (inactive) | 15.4 µM (inactive) | – | 21.6 µM (inactive) | 18.3 µM (inactive) | 30.3 µM (inactive) | 20.3 µM (inactive) |
| C[C@@H]1[C@H](C)N1CC(O)Cn1ccnc1[N+](=O)[O-] (stereo partly specified) | > 100 µM (inactive) | – | > 100 µM (inactive) | > 100 µM (inactive) | > 100 µM (inactive) | > 100 µM (inactive) | > 100 µM (inactive) | > 100 µM (inactive) | > 100 µM (inactive) | > 100 µM (inactive) | > 100 µM (inactive) | > 100 µM (inactive) | > 100 µM (inactive) | > 100 µM (inactive) | > 100 µM (inactive) | > 100 µM (inactive) | > 100 µM (inactive) | > 100 µM (inactive) | > 100 µM (inactive) | – |
| COc1ccc2c(c1)c(=O)c1c(NCCN(C)C)ccc3nnn2c31 | 9.51 µM (inactive) | 2.19 µM (inactive) | 1.6 µM (inactive) | 1.11 µM (active) | 3.99 µM (inactive) | – | 3.94 µM (inactive) | 1.61 µM (inactive) | 2.7 µM (inactive) | 4.24 µM (inactive) | – | 0.0272 µM (active) | 2.11 µM (inactive) | 4.04 µM (inactive) | 0.7 µM (active) | – | 2.5 µM (inactive) | 2.17 µM (inactive) | 7.1 µM (inactive) | – |
| CC1=C2CC3=C(C)C(=O)O[C@H]3C[C@@H](C)[C@@H]2CC1 [AMERICANOLIDE D] | > 100 µM (inactive) | > 100 µM (inactive) | 37.8 µM (inactive) | 7.48 µM (inactive) | > 100 µM (inactive) | – | > 100 µM (inactive) | > 100 µM (inactive) | – | > 100 µM (inactive) | > 100 µM (inactive) | – | > 100 µM (inactive) | – | > 100 µM (inactive) | – | > 100 µM (inactive) | > 100 µM (inactive) | 97.5 µM (inactive) | > 100 µM (inactive) |
